Results as given in patent publication US20220232831A1, “NOVEL NON-CODING HETEROCYCLIC AMINO ACIDS (NCHAA) AND THEIR USE AS HERBICIDES” (Fortephest Ltd., priority 2019, published 2022).

Experiments:
[1] = system: Romaine lettuce (Lactuca sativa L.) plants; test: Post-emergency herbicidal activity on Romaine lettuce plants; assay type: in vivo; details: Romaine lettuce at stage 2 to 3 leaves; compound in 0.1% Silwet, up to 0.5%; visual evaluation vs control plants
Method in brief: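 Plants at the 2 to 3 leaf stage were treated with compound in 0.1% aqueous Silwet at 0.0% (Control) to 0.5%, with 20 to 40 plants per test. Vigor, height and leaf color were scored 0 (dead) to 100 (healthy) at 7, 14 and 21 DAA, and aboveground wet weight was measured.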

[2] = system: Amaranthus blitoides (Pigweed); test: Herbicidal activity on development of weeds and crops (pot test); assay type: in vivo; details: 32 days after application, 0 = dead, 100% = healthy
Protocol: (§1) The experiment included 225 pots. Weed seeds were sawn in 0.3-liter pots, containing medium-heavy clay-loam soil from Newe Ya'ar Research Center organic fields (55% clay, 23% silt, 20% sand, 2% organic matter, pH 7.1). The experiment was conducted in a completely randomized design. Each treatment was replicated 5 times (5 pots). The herbicides were applied at 200 L/ha with a motorized sprayer equipped with a Tee Jet 8001E nozzle (Spraying Systems Co., North Ave., Wheaton, Ill. 60188, USA) and operated at a pressure of 300 kPa. The pots were transferred to a glasshouse 24 hours after herbicide application and were sprinkler irrigated to field capacity of the soil. The plants were grown in the glasshouse during the entire experiment. Plant development at 6, 12, 19, 26 and 32 days after application (DAA) were evaluated on a scale of 0 to 100%, in which 0 represents dead plants and 100% represents healthy plants according to plant vigor, height, and leaf color.
(§2) Phalaris minor (Cannarygrass); Setaria verticillata (Bristlegrass); Solanum nigrum (Black nightshade) Sinapis arvensis (Mustard); Silybum marianum (Thistle); Chenopodium album (Lambsquarter); Amaranthus (Pigweed); Fodder corn; Avena sativa (Cultured oats.
(§3) Plant development was evaluated on a scale of 0 to 100%, in which 0 represents dead plants and 100% represents healthy plants according to plant vigor, height, and leaf color.

[3] = system: Avena sativa (Cultured oats); test: as above; assay type: in vivo; details: Avena sativa (crop); 32 days after application; 0 = dead, 100% = healthy
Protocol: as §1, §2, §3

[4] = system: Chenopodium album (Lambsquarter); test: as above; assay type: in vivo; details: 32 days after application, 0 = dead, 100% = healthy
Protocol: as §1, §2, §3

Fodder Corn = test: as above; assay type: in vivo; details: Fodder corn (crop); 32 days after application; 0 = dead, 100% = healthy
Protocol: as §1, §2, §3

[5] = system: Phalaris minor (Cannarygrass); test: as above; assay type: in vivo; details: 32 days after application, 0 = dead, 100% = healthy
Protocol: as §1, §2, §3

[6] = system: Setaria verticillata (Bristlegrass); test: as above; assay type: in vivo; details: 32 days after application, 0 = dead, 100% = healthy
Protocol: as §1, §2, §3

[7] = system: Sinapis arvensis (Mustard); test: as above; assay type: in vivo; details: 32 days after application, 0 = dead, 100% = healthy
Protocol: as §1, §2, §3

[8] = system: Solanum nigrum (Black nightshade); test: as above; assay type: in vivo; details: 32 days after application, 0 = dead, 100% = healthy
Protocol: as §1, §2, §3

Marianum (Thistle) = test: as above; assay type: in vivo, Silybum marianum; details: 32 days after application, 0 = dead, 100% = healthy
Protocol: as §1, §2, §3

[9] = system: Seeds of Lettuce R. (Super-Jericho); test: Filter paper bioassay with lettuce seeds (germination and early plant development); assay type: in vivo; details: lettuce seeds on filter paper; 1, 0.1, 0.01, 0.001 mM; radicle and shoots assessed after 6 days
Method in brief: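 Lettuce seeds (10 per plate) were placed on filter paper with 2.0 ml water or test material at 1, 0.1, 0.01 or 0.001 mM. Plates were kept dark for 48 h, then grown 4 days at 22° C under a 6/18 dark/light cycle. At day 6, radicle and shoot development was scored visually; MEC is the lowest concentration causing deviation from control.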

SMILES	post-emergency herbicidal activity (Activity Index: plant's development vs Control) [1]	Minimal Effective Concentration (MEC) as activity score, seeds germination & early plants development [9]	also measured
NC(Cc1cc(Cl)sc1Cl)C(=O)O (stereo not drawn) [Code 517, 2-amino-3-(2,5-dichlorothiophen-3-yl)propanoic acid]	Maximal (Less than 15)	Maximal (0.01 mM and less)	Plants' Development (% of Control group) following treatment with NCHAAs [2]: 10%; Plants' Development (% of Control group) following treatment with NCHAAs [3]: 100%; Plants' Development (% of Control group) following treatment with NCHAAs [4]: 10%; Plants' Development (% of Control group) following treatment with NCHAAs (Fodder Corn): 90%; Plants' Development (% of Control group) following treatment with NCHAAs [5]: 60%; Plants' Development (% of Control group) following treatment with NCHAAs [6]: 100%; Plants' Development (% of Control group) following treatment with NCHAAs [7]: 0%; Plants' Development (% of Control group) following treatment with NCHAAs [8]: 15%; Plants' Development (% of Control group) following treatment with NCHAAs (Marianum (Thistle)): 35%
NC(Cc1ccnc(Br)c1)C(=O)O (stereo not drawn) [Code 632, 2-amino-3-(2-bromopyridin-4-yl)propanoic acid]	Maximal (Less than 15)	Strong (0.1 mM)	Plants' Development (% of Control group) following treatment with NCHAAs [2]: 100%; Plants' Development (% of Control group) following treatment with NCHAAs [3]: 100%; Plants' Development (% of Control group) following treatment with NCHAAs [4]: 20%; Plants' Development (% of Control group) following treatment with NCHAAs (Fodder Corn): 100%; Plants' Development (% of Control group) following treatment with NCHAAs [5]: 10%; Plants' Development (% of Control group) following treatment with NCHAAs [6]: 20%; Plants' Development (% of Control group) following treatment with NCHAAs [7]: 80%; Plants' Development (% of Control group) following treatment with NCHAAs [8]: 25%; Plants' Development (% of Control group) following treatment with NCHAAs (Marianum (Thistle)): 15%
COCCOCCOC(=O)C(N)Cc1ccc(Br)nc1 (stereo not drawn) [Code 674]	Moderate (From 50 to 75)	Strong (0.1 mM)	–
CCOCCOCCOC(=O)C(N)Cc1ccc(Br)nc1 (stereo not drawn) [Code 675]	Moderate (From 50 to 75)	Strong (0.1 mM)	–
C[n+]1cncc(CC(N)C(=O)O)c1 (stereo not drawn) [Code 676]	Very Strong (From 15 to 25)	Moderate (1 mM)	–
Cl.NC(Cc1ccnc(C(F)(F)F)c1)C(=O)O (stereo not drawn) [Code 679]	Strong (From 25 to 50)	Strong (0.1 mM)	–
NC(CCc1cc[nH]c1)C(=O)O (stereo not drawn) [Code 702]	Weak (More than 75)	Weak (More than 1 mM)	–
NC(Cc1ccc[nH]1)C(=O)O (stereo not drawn) [Code 703]	Weak (More than 75)	Weak (More than 1 mM)	–
NC(Cc1cc[nH]c1)C(=O)O (stereo not drawn) [Code 704]	Weak (More than 75)	Weak (More than 1 mM)	–
NC(Cc1nnc[nH]1)C(=O)O (stereo not drawn) [Code 709]	Maximal (Less than 15)	Moderate (1 mM)	–
O=C(O)[C@@H](O)Cc1c[nH]cn1 [Code 710]	Weak (More than 75)	Weak (More than 1 mM)	–
CCOC(=O)C(Cc1nc[nH]n1)NC(=O)OCc1ccccc1 (stereo not drawn) [Code 714]	Weak (More than 75)	Moderate (1 mM)	–
